These results are taken from patent publication US8142714B2, “Cleaning and disinfection of surgical and medical instruments and appliances” (Chemische Fabrik Dr. Weigert GmbH & Co. KG, priority 2002, dated 2012).

A short description of series [1]: Cleaning of roughened microscope slides dirtied with blood-egg yolk mixture, immersion bath. Conditions: 50 mg blood-egg yolk mixture dried at 55° C. for 2 h; stirred immersion bath 10 min at room temperature; cleaner 1% strength by volume. How it is done:
Roughened microscope slides are dirtied with 50 mg of a blood-egg yolk mixture, dried at 55° C. for 2 h and then immersed in a stirred bath for 10 min at room temperature. The medium used for the immersion bath is deionized water, 0.1 N NaOH or a 1% strength by volume cleaning solution of the cleaning composition concentrate according to example 1. The residual amount of fouling then determined is 20% by weight for water, 35% by weight for 0.1 N NaOH and less than 5% by weight for the cleaner, as immersion bath medium used.

The nature of series [2]: Surface tension as specified in DIN 53993. It is filed as physicochemical. Conditions: NaOH in deionized water, cleaner 1% by volume in Hamburg city water. How it is done: The cleaning solution diluted in ready-to-use form preferably has a surface tension of less than 50 mN/m, preferably less than 40 mN/m, further preferably less than 35 mN/m, further preferably less than 30 mN/m. The surface tension is determined by the plate-ring method as specified in DIN 53993.
The surface tension was determined as specified in DIN 53993 for the following liquids: […]

Consider `[Na+].[OH-]` [0.1 N NaOH, NaOH], for which the “residual amount of fouling” value in series [1] was determined as 35 % by weight. In series [2], this molecule came in with a surface tension of 72 mN/m.
